Data from patent US20250275993A1, “GLYCOSYLATION INHIBITORS AS THERAPEUTICS FOR STROKE” (The Regents of the University of California, priority 2022, published 2025).

Assays:
skin wound = test: Skin wound healing model (splinted wound); format: in vivo, mouse; details: topical 20 μg daily; mice; PBS group 81.5%
Description: The model has been previously described. Briefly, C57BL/6 female mice (8-10 weeks old) were obtained from Jackson labs (Sacramento, CA). A fresh, full-thickness punch wound (4 mm diameter) using a punch (Acu Punch, Acuderm inc. Ft. Lauderdale, FL) splinted with a sterile neoprene ring (6-mm outer diameter and 4-mm inner diameter), fastened with 5-6 sutures (4-0 nylon) under the influence of Isoflurane was created on the back of the animal in a Class II Biological Safety Cabinet. For all surgical procedures, sterile technique was followed. Buprenorphine was given subcutaneously prior to awakening from anesthesia for anticipated pain. Mice were monitored until fully awake and were housed individually to minimize damage/biting/fighting to the surgical site. […] Treatment agents were prepared in PBS, sterile-filtered and 25 μl solution was applied daily directly to a wound bed for the first 4-5 days under the influence of Isoflurane, followed by daily observation. Wound closure was monitored by regular imaging and the wound area was quantified using ImageJ (National Institutes of Health, Bethesda, MD, USA). […] Epithelial gap was measured histomorphometrically using AxioVision LE Rel.4.4 software. […] Small vessels stained positive for CD31 were counted microscopically on 10 fields (20×) taken around the wound.

[1] = test system: BCEC confluent monolayers; test: BCEC scratch assay; format: cell-based, bovine; details: 40 μM ManN or 50 ng/ml of VEGF; after 48 hours
Description: BCECs (passage 6-10) and HUVEC (passage 6-8) were used in this assay. Cells were grown until about 80% confluency in 6-well plates, washed twice with PBS and then starved in serum-free DMEM (low Glucose, Hyclone) for 5 hrs before making a “scratch” using 1 ml tip. Cell monolayers were briefly washed once with serum-free media, followed by various treatments in media containing 1% FBS. 48 hrs later, the assay was stopped by adding 2 ml 4% paraformaldehyde. 20 min later, fixed cells were stained with 1 ml Crystal Violet (Sigma). Plates were washed gently under the running tap water and air-dried before taking pictures. Images were acquired by ZEISS Discovery […] microscopy equipped with […] camera. Quantification of wound closure was done using AxioVision LE Rel.4.4 software. Six images were taken for each sample and six measurements (in pixel) were made on each image using AxioVision LE Re1.4.4 software.

VEGFR2 = VEGFR2 western blot in BCECs (molecular mass, phosphorylation, PNGase F); format: cell-based, bovine; details: VEGF at 5 ng/ml for 24 hours
Description: Glycerol-free PNGase F was obtained from New England Biolabs (Ipswich, MA). Briefly, BCECs were lysed with NP-40 containing proteinase inhibitors (Thermo Scientific, Waltham, MA). Lysates were cleared at 4° C. at 5000 g for 25 mins. Total protein content was measured using Pierce BCA protein assay kit (Thermo Scientific). 20 mg of protein was mixed with 10× denaturing buffer and H2O to a total volume of […]. Glycoproteins were denatured at 100° C. for 10 mins, followed by adding Glycobuffer and PNGase F. The reaction was carried out at 37° C. for 2 hr.
Cells were allowed to reach-80% confluency in 12-well plates. […] At various time points, plates were taken out of the incubator and kept on ice. […] Lysates were collected and mixed with 4× Bolt LDS Sample Buffer (Novex, Carlsbad, CA) in the presence of Halt protease inhibitors and phosphatase inhibitor cocktail (ThermoFisher scientific, #NP0007). […] HUVECs (passage 6-8) were plated in EBM-2 basal medium (Lonza) with 0.2% FBS. Following overnight culture, cells were serum-starved in EBM-2 medium for 4 hrs prior to treatment with 50 ng/ml of VEGF165 or vehicle controls for various lengths. Equal amounts of protein lysates were analyzed by SDS-PAGE and blotted with the indicated antibodies. Proteins were transferred using Tris-Glycine buffer with 20% Methanol (Proteonomics grade) (Apex BioResearch Products). Membranes were first incubated with 5% milk in TBST, pH 7.6 (TEKnova, Hollister, CA), followed by blotting with primary and secondary antibodies. ECL anti-rabbit IgG, horseradish peroxidase linked whole antibody from donkey or sheep anti-mouse were obtained from GE Healthcare (UK limited). SuperSignal West Dura Extended Duration substrate was from ThermoFisher Scientific. In some cases, the same PVDF membranes were stripped by 8-min incubation in the Restore Plus Western Blot Stripping Buffer (ThermoFisher Scientific) to show total specific protein expression, followed by second stripping for (3-actin expression.

With VEGF the “average closure of the wound on day 4” value (skin wound) was 66.9%, the “closure of the scratched area vs control” value [1] was “significantly accelerated BCEC migration and/or proliferation” and the “effect of VEGF alone on VEGFR2 molecular mass” value (VEGFR2) was “no effect on molecular mass”.
